# According to ChEMBL document CHEMBL3885881, “DrugMatrix”:
# Organism: Rattus norvegicus
# Assay: DrugMatrix - Regimen: Daily Repeat
# Assay type: toxicity, organism-based, Sprague-Dawley
# Set-up: regimen Daily Repeat, gender Male, age 6-8 weeks
# Details: in vivo, po, route oral GAVAGE, vehicle .5 % CMC; for ABSOLUTE BASOPHIL / ABSOLUTE EOSINOPHIL / ABSOLUTE LYMPHOCYTE / ABSOLUTE MONOCYTE / ABSOLUTE SEGMENTED NEUTROPHIL / BASOPHIL / EOSINOPHIL / ERYTHROCYTE COUNT / HEMATOCRIT / HEMOGLOBIN / LEUKOCYTE COUNT / LYMPHOCYTE / MEAN CORPUSCULAR HEMOGLOBIN / MEAN CORPUSCULAR HEMOGLOBIN CONCENTRATION / MEAN CORPUSCULAR VOLUME / MONOCYTE / NEUTROPHIL / NUCLEATED RED BLOOD CELLS / PLATELET COUNT: tissue Blood; for ALANINE AMINOTRANSFERASE / ALBUMIN / ALKALINE PHOSPHATASE / ASPARTATE AMINOTRANSFERASE / BLOOD UREA NITROGEN / CARBON DIOXIDE / CHLORIDE / CHOLESTEROL / CREATINE PHOSPHOKINASE / CREATININE / GLUCOSE / LACTATE DEHYDROGENASE / LIPASE / PHOSPHORUS / POTASSIUM / SODIUM / TOTAL BILIRUBIN / TOTAL PROTEIN / URIC ACID: tissue Plasma
# [1] = 0 mg/kg, 72 h, dose level Control, time 3 day
# [2] = 0 mg/kg, 120 h, dose level Control, time 5 day
# [3] = 500 mg/kg, 72 h, dose level Low, time 3 day
smiles,measurement,setting,value
CC(C)(Sc1cc(C(C)(C)C)c(O)c(C(C)(C)C)c1)Sc1cc(C(C)(C)C)c(O)c(C(C)(C)C)c1 [PROBUCOL],ABSOLUTE BASOPHIL,[1],0 CELLS/uL
same,ABSOLUTE EOSINOPHIL,[1],222.83 CELLS/uL
same,ABSOLUTE LYMPHOCYTE,[1],14453 CELLS/uL
same,ABSOLUTE MONOCYTE,[1],0 CELLS/uL
same,ABSOLUTE SEGMENTED NEUTROPHIL,[1],1490.83 CELLS/uL
same,BASOPHIL,[1],0%
same,EOSINOPHIL,[1],1.33%
same,ERYTHROCYTE COUNT,[1],5.76 x10E6/uL
same,HEMATOCRIT,[1],36.52%
same,HEMOGLOBIN,[1],13.45 G/DL
same,LEUKOCYTE COUNT,[1],16.17 x10E3/uL
same,LYMPHOCYTE,[1],89.33%
same,MEAN CORPUSCULAR HEMOGLOBIN,[1],23.37 pg
same,MEAN CORPUSCULAR HEMOGLOBIN CONCENTRATION,[1],36.85 G/DL
same,MEAN CORPUSCULAR VOLUME,[1],63.47 fL
same,MONOCYTE,[1],0%
same,NEUTROPHIL,[1],9.33%
same,NUCLEATED RED BLOOD CELLS,[1],0 /100WBC
same,PLATELET COUNT,[1],1239.5 x10E3/uL
same,ALANINE AMINOTRANSFERASE,[1],43.83 u/L
same,ALBUMIN,[1],4.27 G/DL
same,ALKALINE PHOSPHATASE,[1],398.83 u/L
same,ASPARTATE AMINOTRANSFERASE,[1],81.17 u/L
same,BLOOD UREA NITROGEN,[1],17.67 mg/dL
same,CARBON DIOXIDE,[1],27.5 mmol/L
same,CHLORIDE,[1],99.17 MEQ/L
same,CHOLESTEROL,[1],74 mg/dL
same,CREATINE PHOSPHOKINASE,[1],331.5 u/L
same,CREATININE,[1],0.2 mg/dL
same,GLUCOSE,[1],171.33 mg/dL
same,LACTATE DEHYDROGENASE,[1],241.67 u/L
same,LIPASE,[1],9.5 u/L
same,PHOSPHORUS,[1],12.25 mg/dL
same,POTASSIUM,[1],6.33 MEQ/L
same,SODIUM,[1],141.28 MEQ/L
same,TOTAL BILIRUBIN,[1],0.15 mg/dL
same,TOTAL PROTEIN,[1],5.98 G/DL
same,URIC ACID,[1],1.63 mg/dL
same,ABSOLUTE BASOPHIL,[2],0 CELLS/uL
same,ABSOLUTE EOSINOPHIL,[2],148.67 CELLS/uL
same,ABSOLUTE LYMPHOCYTE,[2],16020.5 CELLS/uL
same,ABSOLUTE MONOCYTE,[2],29.17 CELLS/uL
same,ABSOLUTE SEGMENTED NEUTROPHIL,[2],1468.33 CELLS/uL
same,BASOPHIL,[2],0%
same,EOSINOPHIL,[2],1%
same,ERYTHROCYTE COUNT,[2],5.78 x10E6/uL
same,HEMATOCRIT,[2],35.77%
same,HEMOGLOBIN,[2],13.4 G/DL
same,LEUKOCYTE COUNT,[2],17.67 x10E3/uL
same,LYMPHOCYTE,[2],90.5%
same,MEAN CORPUSCULAR HEMOGLOBIN,[2],23.22 pg
same,MEAN CORPUSCULAR HEMOGLOBIN CONCENTRATION,[2],37.47 G/DL
same,MEAN CORPUSCULAR VOLUME,[2],61.92 fL
same,MONOCYTE,[2],0.17%
same,NEUTROPHIL,[2],8.33%
same,NUCLEATED RED BLOOD CELLS,[2],0.17 /100WBC
same,PLATELET COUNT,[2],1255.5 x10E3/uL
same,ALANINE AMINOTRANSFERASE,[2],46.5 u/L
same,ALBUMIN,[2],4.38 G/DL
same,ALKALINE PHOSPHATASE,[2],336 u/L
same,ASPARTATE AMINOTRANSFERASE,[2],76.5 u/L
same,BLOOD UREA NITROGEN,[2],20 mg/dL
same,CARBON DIOXIDE,[2],27.5 mmol/L
same,CHLORIDE,[2],101 MEQ/L
same,CHOLESTEROL,[2],71.33 mg/dL
same,CREATINE PHOSPHOKINASE,[2],231.83 u/L
same,CREATININE,[2],0.37 mg/dL
same,GLUCOSE,[2],168.83 mg/dL
same,LACTATE DEHYDROGENASE,[2],174 u/L
same,LIPASE,[2],8.67 u/L
same,PHOSPHORUS,[2],11.48 mg/dL
same,POTASSIUM,[2],6.82 MEQ/L
same,SODIUM,[2],143.8 MEQ/L
same,TOTAL BILIRUBIN,[2],0.2 mg/dL
same,TOTAL PROTEIN,[2],5.98 G/DL
same,URIC ACID,[2],1.83 mg/dL
same,ABSOLUTE BASOPHIL,[3],0 CELLS/uL
same,ABSOLUTE EOSINOPHIL,[3],297 CELLS/uL
same,ABSOLUTE LYMPHOCYTE,[3],13431.33 CELLS/uL
same,ABSOLUTE MONOCYTE,[3],0 CELLS/uL
same,ABSOLUTE SEGMENTED NEUTROPHIL,[3],1238.33 CELLS/uL
same,BASOPHIL,[3],0%
same,EOSINOPHIL,[3],2%
same,ERYTHROCYTE COUNT,[3],5.69 x10E6/uL
same,HEMATOCRIT,[3],35.67%
same,HEMOGLOBIN,[3],13.3 G/DL
same,LEUKOCYTE COUNT,[3],14.97 x10E3/uL
same,LYMPHOCYTE,[3],89.67%
same,MEAN CORPUSCULAR HEMOGLOBIN,[3],23.37 pg
same,MEAN CORPUSCULAR HEMOGLOBIN CONCENTRATION,[3],37.3 G/DL
same,MEAN CORPUSCULAR VOLUME,[3],62.7 fL
same,MONOCYTE,[3],0%
same,NEUTROPHIL,[3],8.33%
same,NUCLEATED RED BLOOD CELLS,[3],0 /100WBC
same,PLATELET COUNT,[3],1188.33 x10E3/uL
same,ALANINE AMINOTRANSFERASE,[3],35.33 u/L
same,ALBUMIN,[3],4.5 G/DL
same,ALKALINE PHOSPHATASE,[3],363.33 u/L
same,ASPARTATE AMINOTRANSFERASE,[3],79 u/L
same,BLOOD UREA NITROGEN,[3],17.33 mg/dL
same,CARBON DIOXIDE,[3],26.33 mmol/L
same,CHLORIDE,[3],100 MEQ/L
same,CHOLESTEROL,[3],67.33 mg/dL
same,CREATINE PHOSPHOKINASE,[3],213 u/L
same,CREATININE,[3],0.25 mg/dL
same,GLUCOSE,[3],158 mg/dL
same,LACTATE DEHYDROGENASE,[3],122 u/L
same,LIPASE,[3],8.33 u/L
same,PHOSPHORUS,[3],12.37 mg/dL
same,POTASSIUM,[3],6.67 MEQ/L
same,SODIUM,[3],142.2 MEQ/L
same,TOTAL BILIRUBIN,[3],0.13 mg/dL
same,TOTAL PROTEIN,[3],6.23 G/DL
same,URIC ACID,[3],1.73 mg/dL
